The EC50 is the concentration at which the effect is half-maximal. A higher EC50 goes with a less potent agent.

Drawing on US20250129070A1, “BIFUNCTIONAL ANDROGEN RECEPTOR COMPOUNDS” (priority 2023, published 2025), this text covers EC50 for 15 compounds.

The test system of this assay is AR / CBP ternary complex. The assay is described as follows: Ternary complex formation assay (sandwich ELISA, AR capture / CBP detection) in VCaP cell lysates. It counts as cell-based. To be noted: 1.5 hours treatment, sandwich ELISA (AR capture, CBP or p300 detection). The procedure, abridged: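 Anti-AR (AR 441)-coated plates capture AR from lysates of VCaP cells grown ≥3 days at 50K/well in 5% charcoal-stripped FBS, dosed with bifunctional for 1.5 h and lysed 30 min at 4 °C. Co-captured CBP/p300 is probed with rabbit mAb and HRP anti-rabbit, then QuantaRed fluorescence (570/585) is read at 0, 5 and 15 min.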
Compound `CC(=O)N1CCc2c(c(N3CCCc4cc(-c5cncs5)c(C(F)F)cc43)nn2C2CCN(CC3C(C)CN(c4ncc(C(=O)NC5C(C)(C)C(Oc6ccc(C#N)c(Cl)c6)C5(C)C)cn4)CC3C)CC2)C1` (stereo not drawn) [Compound 422, 2-[4-[[4-[5-acetyl-3-[7-(difluoromethyl)-6-thiazol-5-yl-3,4-dihydro-2H-quinolin-1-yl]-6,7-dihydro-4H-pyrazolo[4,3-c]pyridin-1-yl]-1-piperidyl]methyl]-3,5-dimethyl-1-piperidyl]-N-[3-(3-chloro-4-cyano-phenoxy)-2,2,4,4-tetramethyl-cyclobutyl]pyrimidine-5-carboxamide] had an EC50 of under 1 nM.

As to `CC(=O)N1CCc2c(c(-c3cccc4cc(-c5cnn(CCOC6CCN(c7ncc(C(=O)NC8C(C)(C)C(Oc9ccc(C#N)c(Cl)c9)C8(C)C)cn7)CC6)c5)ncc34)nn2C2CCOCC2)C1` (stereo not drawn) [Compound 138, 2-[4-[2-[4-[8-(5-acetyl-1-tetrahydropyran-4-yl-6,7-dihydro-4H-pyrazolo[4,3-c]pyridin-3-yl)-3-isoquinolyl]pyrazol-1-yl]ethoxy]-1-piperidyl]-N-[3-(3-chloro-4-cyano-phenoxy)-2,2,4,4-tetramethyl-cyclobutyl]pyrimidine-5-carboxamide], the EC50 was under 1 nM.

Regarding `CC(=O)N1CCc2c(c(N3CCCc4cc(-c5cnn(C)c5)c(C(F)F)cc43)nn2C2CCC(COC3CCN(c4ncc(C(=O)NC5C(C)(C)C(Oc6ccc(C#N)c(Cl)c6)C5(C)C)cn4)CC3)CC2)C1` (stereo not drawn) [Compound 173, 2-[4-[[4-[5-acetyl-3-[7-(difluoromethyl)-6-(1-methylpyrazol-4-yl)-3,4-dihydro-2H-quinolin-1-yl]-6,7-dihydro-4H-pyrazolo[4,3-c]pyridin-1-yl]cyclohexyl]methoxy]-1-piperidyl]-N-[3-(3-chloro-4-cyano-phenoxy)-2,2,4,4-tetramethyl-cyclobutyl]pyrimidine-5-carboxamide], the EC50 is under 1 nM.

Consider `CC(=O)N1CCc2c(c(-c3cccc4cc(-c5cnn(CC6CCN(c7ncc(C(=O)NC8C(C)(C)C(Oc9ccc(C#N)c(Cl)c9)C8(C)C)cn7)CC6)c5)ncc34)nn2C2CCOCC2)C1` (stereo not drawn) [Compound 137, 2-[4-[[4-[8-(5-acetyl-1-tetrahydropyran-4-yl-6,7-dihydro-4H-pyrazolo[4,3-c]pyridin-3-yl)-3-isoquinolyl]pyrazol-1-yl]methyl]-1-piperidyl]-N-[3-(3-chloro-4-cyano-phenoxy)-2,2,4,4-tetramethyl-cyclobutyl]pyrimidine-5-carboxamide], for which the EC50 was under 1 nM.

As for `COc1cc(OC2C(C)(C)C(NC(=O)c3ccc(N4CCC5(CC4)CC(Oc4ccc(-c6cc7c(cc6C(F)F)N(c6nn(C8CCOCC8)c8c6CN(C(C)=O)CC8)CCC7)cc4)C5)cc3)C2(C)C)ccc1C#N` (stereo not drawn) [Compound 307, 4-[2-[4-[1-(5-acetyl-1-tetrahydropyran-4-yl-6,7-dihydro-4H-pyrazolo[4,3-c]pyridin-3-yl)-7-(difluoromethyl)-3,4-dihydro-2H-quinolin-6-yl]phenoxy]-7-azaspiro[3.5]nonan-7-yl]-N-[3-(4-cyano-3-methoxy-phenoxy)-2,2,4,4-tetramethyl-cyclobutyl]benzamide], the EC50 was in the range of 1 to 10 nM.

Consider `COc1cc(OC2C(C)(C)C(NC(=O)c3ccc(OC4CCC(N5CCC(n6nc(N7CCCc8cc(-c9cnn(C)c9)c(C(F)F)cc87)c7c6CCN(C(C)=O)C7)CC5)CC4)cc3)C2(C)C)ccc1C#N` (stereo not drawn) [Compound 381, 4-[4-[4-[5-acetyl-3-[7-(difluoromethyl)-6-(1-methylpyrazol-4-yl)-3,4-dihydro-2H-quinolin-1-yl]-6,7-dihydro-4H-pyrazolo[4,3-c]pyridin-1-yl]-1-piperidyl]cyclohexoxy]-N-[3-(4-cyano-3-methoxy-phenoxy)-2,2,4,4-tetramethyl-cyclobutyl]benzamide], for which the EC50 is under 1 nM.

The compound `COc1cc(OC2C(C)(C)C(NC(=O)c3ccc(N4CC5(CCC(N6CCC(n7nc(N8CCCc9cc(C#N)c(C(F)F)cc98)c8c7CCN(C(C)=O)C8)CC6)CC5)C4)cc3)C2(C)C)ccc1C#N` (stereo not drawn) [Compound 452, 4-[7-[4-[5-acetyl-3-[6-cyano-7-(difluoromethyl)-3,4-dihydro-2H-quinolin-1-yl]-6,7-dihydro-4H-pyrazolo[4,3-c]pyridin-1-yl]-1-piperidyl]-2-azaspiro[3.5]nonan-2-yl]-N-[3-(4-cyano-3-methoxy-phenoxy)-2,2,4,4-tetramethyl-cyclobutyl]benzamide] came in with an EC50 of under 1 nM.

Regarding `CC(=O)N1CCc2c(c(N3CCCc4cc(-c5cn(C)cn5)c(C(F)F)cc43)nn2C2CCN(CC3C(C)CN(c4ncc(C(=O)NC5C(C)(C)C(Oc6ccc(C#N)c(Cl)c6)C5(C)C)cn4)CC3C)CC2)C1` (stereo not drawn) [Compound 425, 2-[4-[[4-[5-acetyl-3-[7-(difluoromethyl)-6-(1-methylimidazol-4-yl)-3,4-dihydro-2H-quinolin-1-yl]-6,7-dihydro-4H-pyrazolo[4,3-c]pyridin-1-yl]-1-piperidyl]methyl]-3,5-dimethyl-1-piperidyl]-N-[3-(3-chloro-4-cyano-phenoxy)-2,2,4,4-tetramethyl-cyclobutyl]pyrimidine-5-carboxamide], the EC50 is under 1 nM.

`CC(=O)N1CCc2c(c(N3CCCc4cc(-c5cnn(C)c5)c(C(F)F)cc43)nn2C2CN(CCN3CCN(c4ncc(C(=O)NC5C(C)(C)C(Oc6ccc(C#N)c(Cl)c6)C5(C)C)cn4)CC3)C2)C1` (stereo not drawn) [Compound 161, 2-[4-[2-[3-[5-acetyl-3-[7-(difluoromethyl)-6-(1-methylpyrazol-4-yl)-3,4-dihydro-2H-quinolin-1-yl]-6,7-dihydro-4H-pyrazolo[4,3-c]pyridin-1-yl]azetidin-1-yl]ethyl]piperazin-1-yl]-N-[3-(3-chloro-4-cyano-phenoxy)-2,2,4,4-tetramethyl-cyclobutyl]pyrimidine-5-carboxamide] gave an EC50 of 10 to 100 nM.

The compound `CC(=O)N1CCc2c(c(-c3cccc4cc(-c5ccc(CC6CCN(c7ncc(C(=O)NC8C(C)(C)C(Oc9ccc(C#N)c(Cl)c9)C8(C)C)cn7)CC6)nc5)ncc34)nn2C2CCOCC2)C1` (stereo not drawn) [Compound 140, 2-[4-[[5-[8-(5-acetyl-1-tetrahydropyran-4-yl-6,7-dihydro-4H-pyrazolo[4,3-c]pyridin-3-yl)-3-isoquinolyl]-2-pyridyl]methyl]-1-piperidyl]-N-[3-(3-chloro-4-cyano-phenoxy)-2,2,4,4-tetramethyl-cyclobutyl]pyrimidine-5-carboxamide] displayed an EC50 of under 1 nM.

In the case of `CC(=O)N1CCc2c(c(N3CCCc4cc(-c5cnn(C)c5)c(C(F)F)cc43)nn2C2CCN(C3CCC4(C3)CN(c3ncc(C(=O)NC5C(C)(C)C(Oc6ccc(C#N)c(Cl)c6)C5(C)C)cn3)C4)CC2)C1` (stereo not drawn) [Compound 344, 2-[6-[4-[5-acetyl-3-[7-(difluoromethyl)-6-(1-methylpyrazol-4-yl)-3,4-dihydro-2H-quinolin-1-yl]-6,7-dihydro-4H-pyrazolo[4,3-c]pyridin-1-yl]-1-piperidyl]-2-azaspiro[3.4]octan-2-yl]-N-[3-(3-chloro-4-cyano-phenoxy)-2,2,4,4-tetramethyl-cyclobutyl]pyrimidine-5-carboxamide], the EC50 was under 1 nM.

For the compound `COc1cc(OC2C(C)(C)C(NC(=O)c3ccc(N4CC5(CCC(N6CCC(n7nc(N8CCCc9cc(-c%10cncs%10)c(C(F)F)cc98)c8c7CCN(C(C)=O)C8)CC6)CC5)C4)cc3)C2(C)C)ccc1C#N` (stereo not drawn) [Compound 428, 4-[7-[4-[5-acetyl-3-[7-(difluoromethyl)-6-thiazol-5-yl-3,4-dihydro-2H-quinolin-1-yl]-6,7-dihydro-4H-pyrazolo[4,3-c]pyridin-1-yl]-1-piperidyl]-2-azaspiro[3.5]nonan-2-yl]-N-[3-(4-cyano-3-methoxy-phenoxy)-2,2,4,4-tetramethyl-cyclobutyl]benzamide], the EC50 was under 1 nM.

Compound `COc1cc(OC2C(C)(C)C(NC(=O)c3ccc(N4CC5(CCC(N6CCC(n7nc(N8CCCc9cc(-c%10cn(C)cn%10)c(C(F)F)cc98)c8c7CCN(C(C)=O)C8)CC6)CC5)C4)cc3)C2(C)C)ccc1C#N` (stereo not drawn) [Compound 426, 4-[7-[4-[5-acetyl-3-[7-(difluoromethyl)-6-(1-methylimidazol-4-yl)-3,4-dihydro-2H-quinolin-1-yl]-6,7-dihydro-4H-pyrazolo[4,3-c]pyridin-1-yl]-1-piperidyl]-2-azaspiro[3.5]nonan-2-yl]-N-[3-(4-cyano-3-methoxy-phenoxy)-2,2,4,4-tetramethyl-cyclobutyl]benzamide] gave an EC50 of under 1 nM.

Consider `CC(=O)N1CCc2c(c(N3CCCc4cc(-c5cnn(C)c5)c(C(F)F)cc43)nn2CCOc2ncc(C(=O)NC3C(C)(C)C(Oc4ccc(C#N)c(Cl)c4)C3(C)C)cn2)C1` (stereo not drawn) [Compound 46, 2-[2-[5-acetyl-3-[7-(difluoromethyl)-6-(1-methylpyrazol-4-yl)-3,4-dihydro-2H-quinolin-1-yl]-6,7-dihydro-4H-pyrazolo[4,3-c]pyridin-1-yl]ethoxy]-N-[3-(3-chloro-4-cyano-phenoxy)-2,2,4,4-tetramethyl-cyclobutyl]pyrimidine-5-carboxamide], for which the EC50 is under 1 nM.

With `COc1cc(OC2C(C)(C)C(NC(=O)c3ccc(N4CCC[C@@H](N5CCC(n6nc(N7CCCc8cc(-c9cnn(C)c9)c(C(F)F)cc87)c7c6CCN(C(C)=O)C7)CC5)C4)cc3)C2(C)C)ccc1C#N` (stereo partly drawn) [Compound 400, 4-[(3R)-3-[4-[5-acetyl-3-[7-(difluoromethyl)-6-(1-methylpyrazol-4-yl)-3,4-dihydro-2H-quinolin-1-yl]-6,7-dihydro-4H-pyrazolo[4,3-c]pyridin-1-yl]-1-piperidyl]-1-piperidyl]-N-[3-(4-cyano-3-methoxy-phenoxy)-2,2,4,4-tetramethyl-cyclobutyl]benzamide], the EC50 is under 1 nM.
